Data from patent publication US20230181905A1, “Systems, Devices, and Methods for Enhancing the Neuroprotective Effects of Non-Invasive Gamma Stimulation with Pharmacological Agents” (Massachusetts Institute of Technology, priority 2021, published 2023).

Experiments:
[1] = tested on: IBA1+ microglia; assay: IBA1+ microglia density, area and volume by immunohistochemistry; assay type: in vivo, mouse
Method: Experiments were performed to reduce microglia from 10-month-old 5×FAD mice, transgenic mice that overexpress human APP and PSEN1 genes harboring 5 AD-associated mutations, prior to GENUS treatment. […] Following 20 days of administration of Plx3397 chow, untreated- and Plx3397-treated 5×FAD mice (which continued Plx3397 administration) were subjected to 30 days of daily GENUS (FIG. 1A). Following completion of these treatments, microglial density in the visual cortex was compared between 1) untreated (No Stim), 2) Plx3397 treated, 3) GENUS treated and 4) Plx3397+GENUS treated 5×FAD mice (FIG. 1B).
Whether the neuroprotective effect is broader and can be replicated in other mouse models of neurodegeneration was evaluated. The CK-p25 mice, transgenic mice that overexpress CDK5 activator p25 in excitatory neurons, were subjected to these treatments. CK-p25 mice, which was raised in doxycycline containing food, was given either normal rodent chow (containing no doxycycline) or Plx3397 chow, and the mice simultaneously underwent no sensory stimulation or GENUS (FIG. 7A). After 42 days of treatment, neuroprotective factors were evaluated. Plx3397, GENUS and Plx3397+GENUS treatments reduced microglia in the visual cortex in CK-p25 mice (ANOVA F (3,35)=40.93, P<0.0001) (FIGS. 7B-7D), consistent with the results observed in 5×FAD mice and recent findings.
Microglia: Iba1 immunoreactive cells were considered microglia. Using an LSM 710 or LSM 880 with a 10× (for Iba1+ cell counts) or 40× (for morphological analysis) objective z stacks of the entire slice thickness […] with […] step size were acquired. Imaris was used for 3D rendering of images to quantify the total volume of microglia.
To study how CSF1R-sensitive microglia impact neural activity in the context of AD, an amyloidosis mouse model, the 5×FAD mice—which is a most commonly used mouse model for AD, was subject to a diet containing CSF1R inhibitor Plx3397 for 50 days (FIG. 21A). The CSF1R inhibitor Plx3397 (600 ppm) was employed, which was previously shown to effectively reduce microglia in vivo. Control mice were age-matched 5×FAD litters that received a regular diet. Electrophysiological recordings were performed using linear probes. Post-recording, the recording site in the visual cortex was verified by histology (FIG. 21), and microglia reduction was evaluated by assessing IBA1+ cell numbers.
How does regulating gamma oscillations affect synaptic and neural circuit function in Plx3397 treated 5×FAD mice? Specifically, it was asked what gene expression patterns are after the Plx3397 treatment and how gamma entrainment impacts such a signature. To address these questions, an unbiased RNA sequencing approach was utilized. 5×FAD mice were treated, via oral delivery in mouse chow, with the Plx3397. Following 20 days of administration of Plx3397 chow, untreated- and Plx3397-treated 5×FAD mice (which continued Plx3397 administration) were subjected to 30 days of daily GENUS (FIG. 24A). Following completion of the treatments, microglial density was quantified between 1) untreated (control), 2) Plx3397, 3) GENUS and 4) Plx3397+GENUS treated 5×FAD mice (FIGS. 24A-24D). […] Also observed was a reduction in IBA1 signal in the GENUS group (84.0±6.42 & 9.17±0.85) (FIGS. 24C-24D), which is consistent with previous observation in CK-p25 mice. After the treatments, the visual cortex was dissected, and single nucleus RNA-sequencing was performed.
Microglia: Iba1 immunoreactive cells were considered microglia. Using an LSM 710 or LSM 880 with a 10× (for Iba1+ cell counts) or 40× (for morphological analysis) objective z stacks of the entire slice thickness […] with […] step size were acquired. Imaris was used for 3D rendering of images to quantify the total volume of microglia. MAC2+ cells were counted manually using Image J.

[2] = tested on: amyloid plaques (D54D2); assay: D54D2 amyloid plaque staining in APOE4-KI 5×FAD hippocampus; assay type: in vivo, mouse; conditions: APOE4-KI 5×FAD mice, PLX3397 diet combined with 21 days A+V GENUS
Method: Given that APOE4+ individuals accumulate A #earlier than non-carriers, and that APOE facilitates the response of microglia to amyloid, GENUS outcomes in an APOE4-KI amyloid model were examined. To this end, 21d A+V (audio and visual) GENUS in APOE-KI 5×FAD model was performed and amyloid and microglial outcomes were examined.
Next, 7-8 month old male APOE4-KI 5×FAD animals were treated with 3 weeks of PLX3397 diet (or control), followed by 21 days of A+V GENUS, during which animals remained on their diets (FIG. 37).

[3] = 5×FAD mice, visual cortex, Plx3397 chow 50 days, GENUS last 30 days

## FC(F)(F)c1ccc(CNc2ccc(Cc3c[nH]c4ncc(Cl)cc34)cn2)cn1 [Plx3397, Pexidartinib]
[1]; 5×FAD mice, CA1 region of the hippocampus
  IBA1+ positive microglia: significant reduction
[1]; 5×FAD mice, hippocampus, chronic Plx3397 vs control
  IBA1+ cells: reduced
[1]; 5×FAD mice, visual cortex, Plx3397 chow 600 ppm 20 days, then 30 days continued with or without daily GENUS, vs untreated
  IBA1+ positive microglia: significant reduction
[1]; [3]
  % area covered by IBA1: 7.27±0.45%
  IBA1+ microglia number: 47.18±5.44 % no treatment control
[1]; 5×FAD mice, visual cortex, Plx3397 diet 600 ppm for 50 days
  IBA1+ cells: 12±1.91 cells
[1]; CK-p25 mice, visual cortex, 42 days
  volume of microglia: lower volume
[1]; CK-p25 mice, visual cortex, 42 days of treatment
  microglia: reduced
[1]; CK-p25 mice, visual cortex, chronic treatment 6 weeks
  IBA1+ microglial cells: 44.19±2.86 % no treatment control
[2]; hippocampus CA1
  amyloid plaque number: significant reduction
[2]
  amyloid total area: significant reduction
[2]; vs standard diet
  amyloid staining mean intensity: significant reduction
